Reference: ChEMBL document CHEMBL1132543, “N-deacetyl-N-aminoacylthiocolchicine derivatives: synthesis and biological evaluation on MDR-positive and MDR-negative human cancer cell lines” (J Med Chem, 1999)

What was measured:
[1] = system: MCF7; assay: Anti tumor activity on human breast cancer cell line MDR-positive MCF-7 ADRr after 72 hours of treatment; type: functional, cell-based; settings: MCF7, 72 h
[2] = system: MDA-MB-231; assay: cells; type: functional, cell-based; settings: Homo sapiens, MDA-MB-231, 72 h
Description: Anti tumor activity on human breast cancer cell line MDR-negative MDA-MB 231 after 72 hours of treatment

Row | IC50 [1] | IC50 [2] | Structure (SMILES)
1 | 10000 nM | 90 nM | COc1cc2c(c(OC)c1OC)-c1ccc(SC)c(=O)cc1[C@@H](NC(=O)[C@H](C)N)CC2
2 | 10000 nM | 7.6 nM | COc1cc2c(c(OC)c1OC)-c1ccc(SC)c(=O)cc1[C@@H](NC(=O)CN)CC2
3 | 12000 nM | 150 nM | COc1cc2c(c(OC)c1OC)-c1ccc(SC)c(=O)cc1[C@@H](NC(=O)[C@@H](C)N)CC2
4 | 1700 nM | 3 nM | COc1cc2c(c(OC)c1OC)-c1ccc(SC)c(=O)cc1[C@@H](NC(=O)[C@@H](N)c1ccccc1)CC2.COc1cc2c(c(OC)c1OC)-c1ccc(SC)c(=O)cc1[C@@H](NC(=O)[C@H](N)c1ccccc1)CC2
5 | 1500 nM | 24 nM | COc1cc2c(c(OC)c1OC)-c1ccc(SC)c(=O)cc1[C@@H](NC(=O)[C@@H](NC(=O)C(F)(F)F)c1ccccc1)CC2.COc1cc2c(c(OC)c1OC)-c1ccc(SC)c(=O)cc1[C@@H](NC(=O)[C@H](NC(=O)C(F)(F)F)c1ccccc1)CC2
6 | 800 nM | 19 nM | COc1cc2c(c(OC)c1OC)-c1ccc(SC)c(=O)cc1[C@@H](NC(=O)[C@@H](C)N)CC2.COc1cc2c(c(OC)c1OC)-c1ccc(SC)c(=O)cc1[C@@H](NC(=O)[C@H](C)N)CC2
7 | 10000 nM | 37 nM | COc1cc2c(c(OC)c1OC)-c1ccc(SC)c(=O)cc1[C@@H](NC(=O)[C@@H](CCSC)NC(=O)C(F)(F)F)CC2.COc1cc2c(c(OC)c1OC)-c1ccc(SC)c(=O)cc1[C@@H](NC(=O)[C@H](CCSC)NC(=O)C(F)(F)F)CC2
8 | 20000 nM | 35 nM | COc1cc2c(c(OC)c1OC)-c1ccc(SC)c(=O)cc1[C@@H](NC(=O)[C@@H](N)CCSC)CC2.COc1cc2c(c(OC)c1OC)-c1ccc(SC)c(=O)cc1[C@@H](NC(=O)[C@H](N)CCSC)CC2
9 | 2100 nM | 12 nM | COc1cc2c(c(OC)c1OC)-c1ccc(SC)c(=O)cc1[C@@H](NC(=O)[C@@H](C)NC(=O)C(F)(F)F)CC2.COc1cc2c(c(OC)c1OC)-c1ccc(SC)c(=O)cc1[C@@H](NC(=O)[C@H](C)NC(=O)C(F)(F)F)CC2

Row | Structure (SMILES) | IC50 [1] | IC50 [2]
10 | COc1cc2c(c(OC)c1OC)-c1ccc(SC)c(=O)cc1[C@@H](NC(=O)CNC(=O)C(F)(F)F)CC2 | 12000 nM | 6 nM
11 | COc1cc2c(c(OC)c1OC)-c1ccc(SC)c(=O)cc1[C@@H](NC(=O)C(F)(F)F)CC2 | 35 nM | 1.3 nM
12 | COc1cc2c(c(OC)c1OC)-c1ccc(OC)c(=O)cc1[C@@H](NC(C)=O)CC2 [COLCHICINE] | – | 1.8 nM
